Results reported in publication PMC10826971, “Evaluating protein cross-linking as a therapeutic strategy to stabilize SOD1 variants in a mouse model of familial ALS” (PLOS Biology, 2024).

Columns and labels:
Format in all cases: binding
[1] = target: T1, SOD1^G85R (Homo sapiens, UniProt P00441, G86R); experiment: Differential scanning fluorimetry (DSF), thermal stability
T1 construct: made in house; host or cells: EGy118ΔSOD1 yeast, YEp351 expression vector
Description: (§1) To understand how cross-linking effects SOD1 stability, we quantified changes in unfolding temperature (ΔTu, hereafter thermal stability).
(§2) The effect of cross-link formation on the thermal stability of SOD1 was determined by differential scanning fluorimetry as previously described. […] After incubation, SYPRO Orange (Invitrogen Corporation, Carlsbad, California, USA), an environmentally sensitive fluorescent dye which is quenched in an aqueous environment but becomes unquenched once it binds hydrophobic residues, was added to the reaction mixture to a final concentration of 200×. The samples were then transferred to a fast optical 96-well reaction plate (Applied Biosystem, Life Technologies Corporation, Carlsbad, California, USA) and loaded on to the real-time PCR machine (Applied Biosystem, Life Technologies Corporation, Carlsbad, California, USA) after plate was spun down to eliminate bubbles. The Melt curve template in StepOne Plus software was used to set up a method. […] The final concentration of DMSO in the reaction mixture was checked as it contributes to the denaturation of proteins. Dilutions were performed accordingly to maintain the final concentration of DMSO less than 1% (vol/vol). All samples were run in technical triplicates. The background data was subtracted from the average relative fluorescence and average derivate for each temperature point, and the data were normalized before Tus were quantified by averaging the negative first derivative of relative fluorescence of all 3 runs and identifying the local minima.

[2] = target: T2, SOD1^A4V (Homo sapiens, UniProt P00441, A5V); experiment: as above
T2 construct: made in house; host or cells: EGy118ΔSOD1 yeast, YEp351 expression vector
Description: as §1, §2

[3] = target: SOD1 (Homo sapiens, UniProt P00441)
Description: A computational search was performed in PubChem to identify all compounds containing a cyclic disulfide motif. […] Of these, 69 compounds cross-linked SOD1 with a wide array of reaction rates. Only 2 compounds could cross-link 100% of SOD1 during the assay, including one 5-membered cyclic disulfide (4-Amino-1,2-Dithiolane-4-Carboxylic Acid) and one 6-membered cyclic thiosulfinate (1,2-dithiane 1-oxide).

T1 sequence (P00441 2-154 G86R limits assumed): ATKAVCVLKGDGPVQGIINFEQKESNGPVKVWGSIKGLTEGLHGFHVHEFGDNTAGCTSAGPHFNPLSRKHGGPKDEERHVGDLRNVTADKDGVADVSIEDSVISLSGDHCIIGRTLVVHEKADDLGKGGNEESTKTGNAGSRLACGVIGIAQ
T2 sequence (P00441 2-154 A5V limits assumed): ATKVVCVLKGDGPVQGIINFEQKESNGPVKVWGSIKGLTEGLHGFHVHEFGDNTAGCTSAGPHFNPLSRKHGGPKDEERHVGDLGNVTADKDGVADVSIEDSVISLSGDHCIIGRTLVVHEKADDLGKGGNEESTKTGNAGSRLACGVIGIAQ
SOD1, sequence (P00441 2-154 limits assumed): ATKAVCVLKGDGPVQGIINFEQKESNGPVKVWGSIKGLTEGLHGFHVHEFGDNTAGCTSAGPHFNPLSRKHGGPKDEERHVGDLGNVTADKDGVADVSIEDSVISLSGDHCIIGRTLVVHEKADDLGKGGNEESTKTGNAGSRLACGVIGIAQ

`[O-][S+]1CCCCS1` (stereo not shown) [S-XL6, 1,2-dithiane-1-oxide] was tested, and the “Normalized ROX” value ([1]; SOD1 G85R Protein+S-XL6, Avg. Temp 91.855) was 0.11, the “Normalized ROX” value ([1]; SOD1 G85R Protein+S-XL6, Avg. Temp 92.157) was 0.11 and the “Normalized ROX” value ([1]; SOD1 G85R Protein+S-XL6, Avg. Temp 92.449) was 0.10. The “Normalized ROX” value ([1]; SOD1 G85R Protein+S-XL6, Avg. Temp 92.753) was 0.10, the “Normalized ROX” value ([1]; SOD1 G85R Protein+S-XL6, Avg. Temp 93.058) was 0.09 and the “Normalized ROX” value ([1]; SOD1 G85R Protein+S-XL6, Avg. Temp 93.353) was 0.09. The “Normalized ROX” value ([1]; SOD1 G85R Protein+S-XL6, Avg. Temp 93.651) was 0.08, the “Normalized ROX” value ([1]; SOD1 G85R Protein+S-XL6, Avg. Temp 93.955) was 0.0744 and the “Normalized ROX” value ([1]; SOD1 G85R Protein+S-XL6, Avg. Temp 94.247) was 0.07. The “Normalized ROX” value ([1]; SOD1 G85R Protein+S-XL6, Avg. Temp 94.552) was 0.07, the “Normalized ROX” value ([1]; SOD1 G85R Protein+S-XL6, Avg. Temp 94.853) was 0.06 and the “Normalized ROX” value ([1]; SOD1 G85R Protein+S-XL6, Avg. Temp 95.157) was 0.06. The “Normalized ROX” value ([1]; SOD1 G85R Protein+S-XL6, Avg. Temp 95.458) was 0.05, the “Normalized ROX” value ([1]; SOD1 G85R Protein+S-XL6, Avg. Temp 95.752) was 0.05 and the “Normalized ROX” value ([1]; SOD1 G85R Protein+S-XL6, Avg. Temp 96.054) was 0.044. For the same compound, the “Normalized ROX” value ([1]; SOD1 G85R Protein+S-XL6, Avg. Temp 96.360) was 0.04, the “Normalized ROX” value ([1]; SOD1 G85R Protein+S-XL6, Avg. Temp 96.652) was 0.0332 and the “Normalized ROX” value ([1]; SOD1 G85R Protein+S-XL6, Avg. Temp 96.955) was 0.0323. The “Normalized ROX” value ([1]; SOD1 G85R Protein+S-XL6, Avg. Temp 97.253) was 0.0276, the “Normalized ROX” value ([1]; SOD1 G85R Protein+S-XL6, Avg. Temp 97.554) was 0.0216 and the “Normalized ROX” value ([1]; SOD1 G85R Protein+S-XL6, Avg. Temp 97.851) was 0.02. The “Normalized ROX” value ([1]; SOD1 G85R Protein+S-XL6, Avg. Temp 98.161) was 0.0177, the “Normalized ROX” value ([1]; SOD1 G85R Protein+S-XL6, Avg. Temp 98.455) was 0.0121 and the “Normalized ROX” value ([1]; SOD1 G85R Protein+S-XL6, Avg. Temp 98.751) was 0.0106. The “Normalized ROX” value ([1]; SOD1 G85R Protein+S-XL6, Avg. Temp 99.056) was 0.00748, the “Normalized ROX” value ([1]; SOD1 G85R Protein+S-XL6, Avg. Temp 99.359) was 0.00339 and the “Normalized ROX” value ([1]; SOD1 G85R Protein+S-XL6, Avg. Temp 99.657) was 0.00106. The “Normalized ROX” value ([1]; SOD1 G85R Protein+S-XL6, Avg. Temp 99.866) was 0.00, the “unfolding temperature (Tu) of S-XL6 cross-linked protein” value ([2]; 10-fold molar excess S-XL6, 4 h 37°C, untreated 62.9°C) was 79.3 °C and the “Normalized ROX” value ([2]; SOD1 (A4V) + S-XL6, Avg. Temp 88.559) was 0.8246. The “Normalized ROX” value ([2]; SOD1 (A4V) + S-XL6, Avg. Temp 88.8631) was 0.8068, the “Normalized ROX” value ([2]; SOD1 (A4V) + S-XL6, Avg. Temp 89.1556) was 0.7806 and the “Normalized ROX” value ([2]; SOD1 (A4V) + S-XL6, Avg. Temp 89.4509) was 0.7704. For the same compound, the “Normalized ROX” value ([2]; SOD1 (A4V) + S-XL6, Avg. Temp 89.7543) was 0.7528, the “Normalized ROX” value ([2]; SOD1 (A4V) + S-XL6, Avg. Temp 90.0524) was 0.7438 and the “Normalized ROX” value ([2]; SOD1 (A4V) + S-XL6, Avg. Temp 90.3511) was 0.7281. The “Normalized ROX” value ([2]; SOD1 (A4V) + S-XL6, Avg. Temp 90.6551) was 0.7134, the “Normalized ROX” value ([2]; SOD1 (A4V) + S-XL6, Avg. Temp 90.9595) was 0.6972 and the “Normalized ROX” value ([2]; SOD1 (A4V) + S-XL6, Avg. Temp 91.2522) was 0.6869. The “Normalized ROX” value ([2]; SOD1 (A4V) + S-XL6, Avg. Temp 91.5534) was 0.6765, the “Normalized ROX” value ([2]; SOD1 (A4V) + S-XL6, Avg. Temp 91.844) was 0.6607 and the “Normalized ROX” value ([2]; SOD1 (A4V) + S-XL6, Avg. Temp 92.1549) was 0.6557. The “Normalized ROX” value ([2]; SOD1 (A4V) + S-XL6, Avg. Temp 92.4505) was 0.6388, the “Normalized ROX” value ([2]; SOD1 (A4V) + S-XL6, Avg. Temp 92.7501) was 0.6357 and the “Normalized ROX” value ([2]; SOD1 (A4V) + S-XL6, Avg. Temp 93.0577) was 0.6246. The “Normalized ROX” value ([2]; SOD1 (A4V) + S-XL6, Avg. Temp 93.3585) was 0.6123, the “Normalized ROX” value ([2]; SOD1 (A4V) + S-XL6, Avg. Temp 93.6532) was 0.6065 and the “Normalized ROX” value ([2]; SOD1 (A4V) + S-XL6, Avg. Temp 93.9591) was 0.6047. The “Normalized ROX” value ([2]; SOD1 (A4V) + S-XL6, Avg. Temp 94.2561) was 0.5946, the “Normalized ROX” value ([2]; SOD1 (A4V) + S-XL6, Avg. Temp 94.5503) was 0.5850 and the “Normalized ROX” value ([2]; SOD1 (A4V) + S-XL6, Avg. Temp 94.8582) was 0.5820. For the same compound, the “SOD1 cross-linked during the assay” value [3] was 100%.
